Reference: US20250295748A1 (priority 2020, published 2025)
*1 amine or outer side, *2 acyl side, *3 side chain or, on linkers, in order; H or OH if unused. Where a SMILES comes first, the peptide text is derived from it. Bridges are numbered along the chain shown (N, C = ends). [ ]: non-standard residue; d: D form. X1 = CC(C)CCCCCCCCC[C@H](CC(=O)[*:1])O[*:2]

Biological target: Bovine Serum Albumin (BSA) (Bos taurus, UniProt P02769)
Experiment: Thermal shift assay (SYPRO-Orange) of BSA
Type: biochemical
Settings: FIG. 8, BSA 0.1 mg/ml, 1×PBS

Bovine Serum Albumin (BSA), sequence (P02769 25-607): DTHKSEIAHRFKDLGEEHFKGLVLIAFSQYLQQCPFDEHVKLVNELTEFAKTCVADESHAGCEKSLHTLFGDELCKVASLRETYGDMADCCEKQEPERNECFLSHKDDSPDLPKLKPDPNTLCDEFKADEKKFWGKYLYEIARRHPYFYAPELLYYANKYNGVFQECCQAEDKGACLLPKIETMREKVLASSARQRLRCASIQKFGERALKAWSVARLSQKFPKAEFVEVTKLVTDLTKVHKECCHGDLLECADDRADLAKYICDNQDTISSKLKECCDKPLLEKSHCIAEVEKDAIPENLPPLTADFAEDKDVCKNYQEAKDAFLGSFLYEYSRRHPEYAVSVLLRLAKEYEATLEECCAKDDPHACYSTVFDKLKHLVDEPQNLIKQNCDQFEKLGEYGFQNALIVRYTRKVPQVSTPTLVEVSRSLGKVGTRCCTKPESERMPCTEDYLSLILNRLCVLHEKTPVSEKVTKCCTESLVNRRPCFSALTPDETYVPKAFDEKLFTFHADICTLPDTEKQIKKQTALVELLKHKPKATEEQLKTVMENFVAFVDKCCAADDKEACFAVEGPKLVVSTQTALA

CC(C)CCCCCCCCC[C@@H]1CC(=O)N[C@@H](CCC(=O)O)C(=O)N[C@@H](CC(C)C)C(=O)N[C@H](CC(C)C)C(=O)N[C@@H](C(C)C)C(=O)N[C@@H](CC(=O)O)C(=O)N[C@H](CC(C)C)C(=O)N[C@@H](CC(C)C)C(=O)O1 [Surfactin] (EL[dL]VD[dL]L; linker N-C via X1)
denaturing activity against BSA (decrease in Tm vs concentration): potent at denaturing BSA but less than 277-SEC
